{"source": "patent US10322136B2", "about": "“Composition for inhibiting growth or proliferation of chronic myelogenous leukemia cancer stem cells, and screening method therefor” (HIROSHIMA UNIVERSITY, priority 2015, dated 2019)", "key": {"AMPK": {"test_system": "AMPK", "assay": "Duolink in situ PLA, AMPK phosphorylation in LT-CML cancer stem cells", "format": "cell-based, mouse", "conditions": "LT-CML cancer stem cells in vitro", "protocol": "(§1) To examine phosphorylation of Smad2, Smad3, p38MAPK, AMPK, and S6 ribosomal protein, and Foxo3a-Smad2 and Foxo3a-Smad3 interactions, Duolink® in situ PLA assay (Olink Bioscience) was used. LT-CML stem cells, ST-CML stem cells, CD48^+, MPP, and KLS^− CML cells that were freshly isolated from CML-affected mice, and LT-normal HSCs that were freshly isolated from healthy control littermates, were immediately fixed with 4% paraformaldehyde for 30 min.\n(§2) For in vitro inhibitor experiments, LT-CML stem cells were incubated in 3% O2 at 37° C. for 30 min with vehicle (control; artificial gastric fluid solution (900 ml ddH2O containing 2.0 g of NaCl, 7 ml of conc. HCl and 3.2 g of pepsin)), 5 μM Ly364947 (TGF-β type I receptor kinase Alk5 inhibitor; Merck), 5 μM SB203580 (p38MAPK inhibitor; LC Laboratories), 5 μM GlySar (dipeptide transporter inhibitor; Sigma-Aldrich), 5 μM cefadroxil (dipeptide transporter inhibitor; Sigma-Aldrich), or 100 nM rapamycin (mTORC1 inhibitor; Cell Signaling Technologies). Treated cells were fixed with 4% paraformaldehyde for 30 min, and treated with 0.25% Triton X-100 for 15 min, washed and blocked by incubation in 5% FBS in TBS for 1 hr.\nThe proximate binding of these antibodies was then detected using Duolink® in situ PLA system which employs a set of two secondary antibodies in which one is conjugated to a minus strand PLA probe and the other is conjugated to a plus strand PLA probe. Nuclei were stained with DNA marker DAPI (Sigma). Stained slides were mounted using Fluoromount Plus (Diagnostic Biosystems) and fluorescent images were acquired by confocal microscopy (FV10i, Olympus) and Photoshop software (Adobe). The number of fluorescent foci per single cell was quantified using Duolink®Image Tool software (Olink Bioscience)."}, "[1]": {"test_system": "Foxo3a-/- LT-CML cancer stem cells", "assay": "Colony-forming capacity of Foxo3a-/- LT-CML cancer stem cells", "format": "cell-based, mouse", "conditions": "cefadroxil treatment in vitro", "protocol": "(§3) To establish our Foxo3a-deficient tet-inducible CML mouse model, Foxo3a-deficient mice 42 (C57BL/6; F5) were crossed with Tal-tTA and TRE-BCR-ABL1 transgenic mice that were backcrossed for five generations in the C57BL/6 background, respectively. LT-CML stem cells or LT-normal HSCs (1×10^3/plate) were co-cultured on OP-9 stromal cells for 5 days in the presence of either vehicle (control) or a dipeptide transporter inhibitor cefadroxil (5 μM). Cells were harvested, washed with PBS, and plated in semi-solid methylcellulose medium containing SCF, IL-3, IL-6 and erythropoietin (Methocult GF M3434; Stem Cell Technologies). After growth for 7 days in a humidified atmosphere containing 5% CO2 at 37° C., colony numbers were counted under a light microscope."}, "CML-KLS+ cells": {"test_system": "CML-KLS+ cells", "assay": "Number of GFP/BCR-ABL1+ CML-KLS+ cells in BM of treated CML-affected mice", "format": "in vivo, mouse", "conditions": "daily for 30 days post transplantation", "protocol": "Briefly, CML-affected mice received by oral gavage for 30 days post BM transplantation as described above. The number of GFP/BCR-ABL1+CML-KLS+ cells among total GFP/BCR-ABL1+CML cells isolated from BM MNCs acquired from the two hindlimbs of treated CML-affected mice was assessed by flow cytometry. Freshly purified GFP/BCR-ABL1^+CML-KLS^+ cells (3×10^4) were then serially transplanted into a second set of lethally irradiated congenic recipient mice along with 5×10^5 normal BM MNCs derived from C57BL/6 mice. Mouse survival and disease recurrence were monitored for 90 days."}, "normal HSCs": {"test_system": "normal HSCs", "assay": "Colony-forming assay, LT-normal HSCs on OP-9 stromal cells", "format": "cell-based, mouse", "conditions": "5 μM, 5 days, hypoxic (3% O2)", "protocol": "as §3, with “LT-CML” for “To establish our Foxo3a-deficient tet-inducible CML mouse model, Foxo3a-deficient mice 42 (C57BL/6; F5) were crossed with Tal-tTA and TRE-BCR-ABL1 transgenic mice that were backcrossed for five generations in the C57BL/6 background, respectively. LT-CML”"}, "BCR-ABL1+ disease": {"test_system": "BCR-ABL1+ disease", "assay": "Survival and disease recurrence of BCR-ABL1 CML-affected mice", "format": "in vivo, mouse", "conditions": "oral gavage days 8 to 90 post transplantation; IM 100 mg/kg/day; cefadroxil 36 mg/kg/day; versus vehicle", "excerpt": "BCR-ABL1 transduction/transplantation-based CML model (BCR-ABL1 CML mice) was also used. Briefly, normal KLS^+ cells (4-5×10^3 cells per recipient mouse) were transduced with the human BCR-ABL1-ires GFP retrovirus and transplanted into irradiated (9 Gy) recipient C57BL/6 mice (Sankyo-Lab Service, Tsukuba, Japan).\nTreatment was delivered by oral gavage on days 8 to 90 post transplantation. To examine the effect of single administration of Ly2228820, BCR-ABL1-CML-affected mice received vehicle, or Ly2228820 (2.5 mg kg^−1 every three days; Axon Medchem) in vehicle, by oral gavage on days 8 to 60 days post transplantation."}, "S6 ribosomal protein": {"test_system": "S6 ribosomal protein", "assay": "Duolink in situ PLA, S6 ribosomal protein phosphorylation in LT-CML cancer stem cells", "format": "cell-based, mouse", "conditions": "30 min; GlySar or cefadroxil 5 μM; rapamycin 100 nM", "protocol": "as §1\nas §2, with “Treated cells were fixed with 4% paraformaldehyde for 30 min, and treated with 0.25% Triton X-100 for 15 min, washed and blocked by incubation in 5% FBS in TBS for 1 hr.” left out\nThe proximate binding of these antibodies was then detected using Duolink® in situ PLA system which employs a set of two secondary antibodies in which one is conjugated to a minus strand PLA probe and the other is conjugated to a plus strand PLA probe. […] The number of fluorescent foci per single cell was quantified using Duolink®Image Tool software (Olink Bioscience)."}}, "data": [{"smiles": "CC1=C(C(=O)O)N2C(=O)[C@@H](NC(=O)[C@H](N)c3ccc(O)cc3)[C@H]2SC1", "note": "[cefadroxil]", "values": [{"measurement": "phosphorylation of AMPK", "setting": "AMPK", "value": "increased"}, {"measurement": "number of colonies formed by Foxo3a-/- LT-CML cancer stem cells", "setting": "[1]", "value": "not altered"}, {"measurement": "number of CML-KLS+ cells among GFP/BCR-ABL1+ CML cells from BM", "setting": "CML-KLS+ cells", "value": "significantly decreased"}, {"measurement": "colony-forming capacity of normal HSCs", "setting": "normal HSCs", "value": "maintained normal levels"}, {"measurement": "BCR-ABL1+ disease onset / development", "setting": "BCR-ABL1+ disease", "value": "appeared to promote disease development"}, {"measurement": "phosphorylation of S6", "setting": "S6 ribosomal protein", "value": "decreased phosphorylation"}]}]}
